Measurements: ChEMBL document CHEMBL1909046, “DrugMatrix in vitro pharmacology data”

Key:
[1] = target: T1, 3-hydroxy-3-methylglutaryl-coenzyme A reductase (Homo sapiens, UniProt P04035); design: species or system Escherichia coli;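 note: enzyme inhibition assay of HMG-CoA reductase using radiolabeled [14C]HMG-CoA as substrate; in other assays of this panel Not Active means under 50% inhibition at 10 µM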
T1 sequence (P04035 whole entry): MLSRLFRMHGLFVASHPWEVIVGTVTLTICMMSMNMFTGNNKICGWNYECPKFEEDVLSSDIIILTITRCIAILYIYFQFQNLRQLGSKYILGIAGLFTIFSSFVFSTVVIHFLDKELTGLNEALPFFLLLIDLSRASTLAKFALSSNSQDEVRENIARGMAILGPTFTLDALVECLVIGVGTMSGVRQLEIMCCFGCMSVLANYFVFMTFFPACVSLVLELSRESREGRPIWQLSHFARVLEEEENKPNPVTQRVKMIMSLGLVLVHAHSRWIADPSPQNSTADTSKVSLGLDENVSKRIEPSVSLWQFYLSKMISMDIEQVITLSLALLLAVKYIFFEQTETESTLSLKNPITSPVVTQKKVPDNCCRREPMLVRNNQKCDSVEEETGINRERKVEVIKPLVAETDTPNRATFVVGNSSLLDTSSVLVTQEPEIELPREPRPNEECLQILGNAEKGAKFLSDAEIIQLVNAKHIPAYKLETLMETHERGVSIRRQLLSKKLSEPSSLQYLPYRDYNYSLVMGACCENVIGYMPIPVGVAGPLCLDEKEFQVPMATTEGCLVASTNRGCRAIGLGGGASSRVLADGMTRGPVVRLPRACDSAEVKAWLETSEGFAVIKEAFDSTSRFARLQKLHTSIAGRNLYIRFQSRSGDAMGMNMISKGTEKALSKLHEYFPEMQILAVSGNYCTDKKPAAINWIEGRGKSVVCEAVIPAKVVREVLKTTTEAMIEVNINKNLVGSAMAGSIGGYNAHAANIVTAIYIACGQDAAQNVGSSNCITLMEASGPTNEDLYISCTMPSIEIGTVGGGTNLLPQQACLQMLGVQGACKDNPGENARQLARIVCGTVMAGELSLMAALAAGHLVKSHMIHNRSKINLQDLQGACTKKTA

Interstitial collagenase = target: T2, Interstitial collagenase (Homo sapiens, UniProt P03956); test: biochemical; type: tissue-based, Rheumatoid synovial fibroblasts;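 note: MMP-1 enzyme inhibition assay using a peptide substrate; in other assays of this panel Not Active means under 50% inhibition at 10 µM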
T2 sequence (P03956 whole entry): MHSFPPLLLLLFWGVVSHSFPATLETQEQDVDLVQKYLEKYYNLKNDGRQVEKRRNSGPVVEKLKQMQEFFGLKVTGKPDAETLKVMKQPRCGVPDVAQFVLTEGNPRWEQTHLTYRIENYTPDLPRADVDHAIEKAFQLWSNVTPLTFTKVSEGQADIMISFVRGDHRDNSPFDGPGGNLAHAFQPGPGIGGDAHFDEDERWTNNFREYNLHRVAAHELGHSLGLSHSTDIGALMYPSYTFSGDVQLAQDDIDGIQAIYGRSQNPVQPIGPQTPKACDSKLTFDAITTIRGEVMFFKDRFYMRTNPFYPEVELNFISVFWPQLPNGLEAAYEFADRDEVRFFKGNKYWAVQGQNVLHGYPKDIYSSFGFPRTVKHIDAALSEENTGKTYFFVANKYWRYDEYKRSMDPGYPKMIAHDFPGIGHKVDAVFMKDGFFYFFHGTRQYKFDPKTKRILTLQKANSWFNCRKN

[2] = DRUGMATRIX: Nicotinic Acetylcholine radioligand binding (ligand: [125I] Epibatidine); type: cell membranes, Membrane; conditions: imr-32; Not Active = under 50% inhibition at 10 µM
[3] = DRUGMATRIX: Interleukin IL-1 radioligand binding (ligand: [125I] interleukin 1beta); type: cell membranes, Membrane; conditions: nih3t3; Not Active = under 50% inhibition at 10 µM
[4] = target: Kappa-type opioid receptor (Homo sapiens, UniProt P41145); test: DRUGMATRIX: Opiate kappa (OP2, KOP) radioligand binding (ligand: [3H] Diprenorphine); type: cell membranes, HEK293, Membrane; conditions: Not Active = under 50% inhibition at 10 µM
Chain of Kappa-type opioid receptor (P41145 whole entry): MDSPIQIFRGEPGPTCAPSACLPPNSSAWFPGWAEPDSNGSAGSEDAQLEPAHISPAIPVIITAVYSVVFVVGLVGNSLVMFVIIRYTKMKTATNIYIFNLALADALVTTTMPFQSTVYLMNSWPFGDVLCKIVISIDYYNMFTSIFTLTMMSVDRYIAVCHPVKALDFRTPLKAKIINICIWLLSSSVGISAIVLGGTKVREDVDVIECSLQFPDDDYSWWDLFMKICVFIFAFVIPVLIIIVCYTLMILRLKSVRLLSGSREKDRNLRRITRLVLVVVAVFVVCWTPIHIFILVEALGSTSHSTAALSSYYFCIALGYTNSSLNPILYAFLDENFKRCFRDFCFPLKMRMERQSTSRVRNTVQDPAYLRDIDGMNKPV

[5] = target: T3, Type-2 angiotensin II receptor (Homo sapiens, UniProt P50052); type: cell-based; conditions: cho-k1; note: in other assays of this panel Not Active means under 50% inhibition at 10 µM
T3 sequence (P50052 whole entry): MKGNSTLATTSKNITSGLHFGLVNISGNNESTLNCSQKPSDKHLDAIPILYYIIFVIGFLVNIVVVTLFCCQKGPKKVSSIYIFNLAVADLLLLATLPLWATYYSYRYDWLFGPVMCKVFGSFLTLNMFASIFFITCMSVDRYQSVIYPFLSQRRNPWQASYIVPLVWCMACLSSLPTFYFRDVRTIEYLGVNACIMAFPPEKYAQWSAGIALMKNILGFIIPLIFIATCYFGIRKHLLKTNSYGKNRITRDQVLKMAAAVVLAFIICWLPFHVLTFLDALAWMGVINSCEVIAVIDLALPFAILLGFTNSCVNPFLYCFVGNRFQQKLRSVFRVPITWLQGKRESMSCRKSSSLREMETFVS

[6] = DRUGMATRIX: Atrial Natriuretic Factor (ANF) radioligand binding (ligand: [125I] ANF (rat)); type: cell membranes, Cavia porcellus, Dunkin-Hartley, Adrenal gland, Membrane; conditions: Not Active = under 50% inhibition at 10 µM
[7] = DRUGMATRIX: Leukotriene, BLT (LTB4) radioligand binding (ligand: [3H]LTB4); type: cell membranes, Membrane; conditions: u-937; Not Active = under 50% inhibition at 10 µM

Row | Compound | IC50 [1] | IC50 (Interstitial collagenase) | IC50 [2] | Ki [2] | IC50 [3] | Ki [3] | IC50 ([4]; hek293) | IC50 [5] | IC50 [6] | Ki [6] | IC50 [7] | Ki [7] | IC50 ([4]; read-out: IC50) [nM] | Ki ([4]; read-out: Ki) [nM]
1 | O=C(O)Cc1ccccc1Nc1c(Cl)cccc1Cl [DICLOFENAC] | Not Active | Not Active | Not Active | Not Active | Not Active | Not Active | Not Active | Not Active | Not Active | Not Active | Not Active | Not Active | – | –
2 | C[C@H]1O[C@@H](O[C@H]2[C@@H](O)C[C@H](O[C@H]3[C@@H](O)C[C@H](O[C@H]4CC[C@@]5(C)[C@H](CC[C@@H]6[C@@H]5CC[C@]5(C)[C@@H](C7=CC(=O)OC7)CC[C@]65O)C4)O[C@@H]3C)O[C@@H]2C)C[C@H](O)[C@@H]1O [DIGITOXIN] | Not Active | Not Active | Not Active | Not Active | Not Active | Not Active | Not Active | Not Active | Not Active | Not Active | Not Active | Not Active | – | –
3 | CCN1CC(CCN2CCOCC2)C(c2ccccc2)(c2ccccc2)C1=O (stereo not drawn) [DOXAPRAM] | Not Active | Not Active | Not Active | Not Active | Not Active | Not Active | Not Active | Not Active | Not Active | Not Active | Not Active | Not Active | – | –
4 | Cn1c(=O)c2c(ncn2CC2OCCO2)n(C)c1=O [DOXOFYLLINE] | Not Active | Not Active | Not Active | Not Active | Not Active | Not Active | Not Active | Not Active | Not Active | Not Active | Not Active | Not Active | – | –
5 | COc1cccc2c1C(=O)c1c(O)c3c(c(O)c1C2=O)C[C@@](O)(C(=O)CO)C[C@@H]3O[C@H]1C[C@H](N)[C@H](O)[C@H](C)O1 [DOXORUBICIN] | Not Active | Not Active | Not Active | Not Active | Not Active | Not Active | Not Active | Not Active | Not Active | Not Active | Not Active | Not Active | – | –
6 | COc1cccc2c1C(=O)c1c(O)c3c(c(O)c1C2=O)C[C@@](O)(C(=O)CO)C[C@@H]3O[C@H]1C[C@H](N)[C@@H](O)[C@H](C)O1 [EPIRUBICIN] | Not Active | Not Active | Not Active | Not Active | Not Active | Not Active | Not Active | Not Active | Not Active | Not Active | Not Active | Not Active | – | –
7 | C[C@]12CC[C@@H]3c4ccc(OC(=O)c5ccccc5)cc4CC[C@H]3[C@@H]1CC[C@@H]2O [ESTRADIOL BENZOATE] | Not Active | Not Active | Not Active | Not Active | Not Active | Not Active | Not Active | Not Active | Not Active | Not Active | Not Active | Not Active | – | –
8 | C[C@]12CC[C@@H]3c4ccc(O)cc4CC[C@H]3[C@@H]1CC[C@@H]2O [ESTRADIOL] | Not Active | Not Active | Not Active | Not Active | Not Active | Not Active | Not Active | Not Active | Not Active | Not Active | Not Active | Not Active | – | –
9 | CC[C@@H](CO)NCCN[C@@H](CC)CO [ETHAMBUTOL] | Not Active | Not Active | Not Active | Not Active | Not Active | Not Active | Not Active | Not Active | Not Active | Not Active | Not Active | Not Active | – | –
10 | CC1(C)O[C@@H]2C[C@H]3[C@@H]4C[C@H](F)C5=CC(=O)C=C[C@]5(C)[C@H]4[C@@H](O)C[C@]3(C)[C@]2(C(=O)CO)O1 [FLUNISOLIDE] | Not Active | Not Active | Not Active | Not Active | Not Active | Not Active | Not Active | Not Active | Not Active | Not Active | Not Active | Not Active | – | –
11 | CC1(C)O[C@@H]2C[C@H]3[C@@H]4C[C@H](F)C5=CC(=O)C=C[C@]5(C)[C@@]4(F)[C@@H](O)C[C@]3(C)[C@]2(C(=O)CO)O1 [FLUOCINOLONE ACETONIDE] | Not Active | Not Active | Not Active | Not Active | Not Active | Not Active | Not Active | Not Active | Not Active | Not Active | Not Active | Not Active | – | –
12 | CC1(C)O[C@@H]2C[C@H]3[C@@H]4C[C@H](F)C5=CC(=O)CC[C@]5(C)[C@H]4[C@@H](O)C[C@]3(C)[C@]2(C(=O)CO)O1 [FLURANDRENOLIDE] | Not Active | Not Active | Not Active | Not Active | Not Active | Not Active | Not Active | Not Active | Not Active | Not Active | Not Active | Not Active | – | –
13 | CN(C)c1ccc(C(=C2C=CC(=[N+](C)C)C=C2)c2ccc(N(C)C)cc2)cc1.[Cl-] [GENTIAN VIOLET] | Not Active | Not Active | Not Active | Not Active | Not Active | Not Active | – | Not Active | Not Active | Not Active | Not Active | Not Active | 1540 | 616
14 | Cc1ccc(S(=O)(=O)NC(=O)NN2CC3CCCC3C2)cc1 (stereo not drawn) [GLICLAZIDE] | Not Active | Not Active | Not Active | Not Active | Not Active | Not Active | Not Active | Not Active | Not Active | Not Active | Not Active | Not Active | – | –
15 | NC(=O)NO [HYDROXYUREA] | Not Active | Not Active | Not Active | Not Active | Not Active | Not Active | Not Active | Not Active | Not Active | Not Active | Not Active | Not Active | – | –
16 | CC(C)Cc1ccc(C(C)C(=O)O)cc1 (stereo not drawn) [IBUPROFEN] | Not Active | Not Active | Not Active | Not Active | Not Active | Not Active | Not Active | Not Active | Not Active | Not Active | Not Active | Not Active | – | –
